Data reported in publication PMC6167110, “NgcE^Sco Acts as a Lower-Affinity Binding Protein of an ABC Transporter for the Uptake of N,N′-Diacetylchitobiose in Streptomyces coelicolor A3(2)” (Microbes and Environments, 2018).
Blank lines part the entries; values can stand above or below the molecule they belong to.

Experiments:
DasR (DasR-6His) = biological target: T1, DasR (DasR-6His) (Streptomyces coelicolor, UniProt Q9K492); assay: EMSA, inhibition of DasR binding to dre^ngcE DNA; conditions: Cy5-labeled dre^ngcE DNA probe; allosteric
T1 construct: DasR-6His from pFT240, expressed in E. coli BL21(DE3), Ni-agarose purified

[1] = biological target: T2, NgcE of S. olivaceoviridis (Streptomyces olivaceoviridis, UniProt Q8RJV0); assay: intrinsic protein fluorescence titration; format: binding; conditions: fluorescence increase
T2 construct: N-terminally His-tagged, from E. coli carrying pQEH301
T2 sequence (Q8RJV0 47-489): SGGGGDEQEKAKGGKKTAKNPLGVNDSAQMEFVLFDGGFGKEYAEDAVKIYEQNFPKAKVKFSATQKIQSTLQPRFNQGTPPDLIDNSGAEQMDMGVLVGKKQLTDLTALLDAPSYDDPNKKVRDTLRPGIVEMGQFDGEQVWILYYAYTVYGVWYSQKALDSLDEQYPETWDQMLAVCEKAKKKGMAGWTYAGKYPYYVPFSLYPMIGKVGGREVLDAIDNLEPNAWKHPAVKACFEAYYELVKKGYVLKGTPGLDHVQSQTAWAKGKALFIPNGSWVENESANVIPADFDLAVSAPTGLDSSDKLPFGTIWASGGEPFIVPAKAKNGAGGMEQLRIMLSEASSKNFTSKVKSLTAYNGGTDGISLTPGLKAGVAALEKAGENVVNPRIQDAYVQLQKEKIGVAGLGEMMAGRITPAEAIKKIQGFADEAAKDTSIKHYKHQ

NgcE^Sco (SCO6005) [2] = biological target: T3, NgcE^Sco (SCO6005) (Streptomyces coelicolor, UniProt O50499); assay: isothermal titration calorimetry; format: binding; conditions: 20 mM Tris/HCl pH 8.0, 30°C; single-site fit
T3 construct: without putative signal peptide (29 N-terminal residues); from E. coli
T3 sequence (O50499 30-469): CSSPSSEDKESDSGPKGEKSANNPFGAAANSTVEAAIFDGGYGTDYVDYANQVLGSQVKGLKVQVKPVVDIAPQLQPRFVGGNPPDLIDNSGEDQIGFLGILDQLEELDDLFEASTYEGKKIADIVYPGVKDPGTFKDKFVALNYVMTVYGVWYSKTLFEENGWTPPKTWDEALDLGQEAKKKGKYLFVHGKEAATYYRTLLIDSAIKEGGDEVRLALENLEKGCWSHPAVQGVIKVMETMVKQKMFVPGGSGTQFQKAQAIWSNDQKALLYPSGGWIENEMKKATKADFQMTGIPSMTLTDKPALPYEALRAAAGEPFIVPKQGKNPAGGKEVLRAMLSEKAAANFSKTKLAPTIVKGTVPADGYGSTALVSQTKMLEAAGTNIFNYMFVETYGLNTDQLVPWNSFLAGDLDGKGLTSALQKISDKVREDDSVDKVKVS
Description: isothermal titration calorimetry on NgcE^Sco (SCO6005)

NgcE^Sco (SCO6005) [3] = biological target: T3, NgcE^Sco (SCO6005); assay: intrinsic protein fluorescence titration; format: binding
DasR-6His = biological target: T4, DasR-6His (Streptomyces coelicolor A3(2), UniProt Q9K492 1-254); assay: EMSA; EMSA: Cy5 probe ~0.1 mM and DasR-6His ~1 mM (so in the source); probably uM) in 50 uL, 1% agarose gel; buffer, salt, pH and temperature not given; conditions: protein: recombinant; tags: C-terminal 6xHis; chain copies: 2; label: Cy5 on the printed strand; blunt
T4 sequence: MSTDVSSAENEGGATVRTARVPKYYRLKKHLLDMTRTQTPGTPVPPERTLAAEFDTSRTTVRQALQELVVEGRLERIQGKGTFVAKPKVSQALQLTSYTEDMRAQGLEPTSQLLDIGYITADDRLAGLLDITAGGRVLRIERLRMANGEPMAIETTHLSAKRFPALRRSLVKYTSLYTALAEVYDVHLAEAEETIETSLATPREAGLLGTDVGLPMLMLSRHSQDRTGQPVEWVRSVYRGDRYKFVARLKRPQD

Molecule: CC(=O)N[C@H]1C(O)O[C@H](COP(=O)(O)O)[C@@H](O)[C@@H]1O (stereo partly shown) [GlcNAc-6P]
EMSA, inhibition of DasR binding to dre^ngcE DNA (DasR (DasR-6His)): binding of DasR to the dre^ngcE-containing probe was inhibited by GlcNAc-6P and GlcN-6P

Kd [1]: 85 nM
Kd (NgcE^Sco (SCO6005) [2]): 1150 nM
Molecule: CC(=O)N[C@H]1C(O)O[C@H](CO)[C@@H](O)[C@@H]1O (stereo partly shown) [GlcNAc]

Kd (NgcE^Sco (SCO6005) [3]): 12000 nM
Molecule: CC(=O)N[C@H]1C(O)O[C@H](CO)[C@H](O)[C@@H]1O (stereo partly shown) [GalNAc]

Molecule: N[C@H]1C(O)O[C@H](COP(=O)(O)O)[C@@H](O)[C@@H]1O (stereo partly shown) [GlcN-6P]
EMSA, inhibition of DasR binding to dre^ngcE DNA (DasR (DasR-6His)): binding of DasR to the dre^ngcE-containing probe was inhibited by GlcNAc-6P and GlcN-6P

Kd (NgcE^Sco (SCO6005) [2]): 1530 nM
Molecule: CC(=O)N[C@H]1[C@H](O[C@H]2[C@H](O)[C@@H](NC(C)=O)C(O)O[C@@H]2CO)O[C@H](CO)[C@@H](O)[C@@H]1O (stereo partly shown) [(GlcNAc)2]

Kd (NgcE^Sco (SCO6005) [3]): 25000 nM
Molecule: CC(=O)N[C@H]1C(O)O[C@H](CO)[C@@H](O)[C@@H]1O[C@H](C)C(=O)O (stereo partly shown) [MurNAc]

B1: drengcE (dsDNA)
DNA 1: CCGCCAAGCGAAAGTGGACTATACCTGTCGGCACTCCGGG
DNA 2: CCCGGAGTGCCGACAGGTATAGTCCACTTTCGCTTGGCGG
binding result (DasR-6His): binds

B2: dredasA (dsDNA)
DNA 1: CAAGCTCCCCGTACTGGTCTACACCATTGGTCCAGGTCCC
DNA 2: GGGACCTGGACCAATGGTGTAGACCAGTACGGGGAGCTTG
binding result (DasR-6His): binds

B3: drenagKA (dsDNA)
DNA 1: CGTACACCCGGGAGAGGTCTAGTCCACTGCGGTGGTGTAG
DNA 2: CTACACCACCGCAGTGGACTAGACCTCTCCCGGGTGTACG
binding result (DasR-6His): binds
